Data as given in the supplement of paper PMC11451515.

Test system: NOMO1
Assay: cell viability relative to DMSO control; higher = less cytotoxic
Conditions: 48 h
Summary of the method: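 In 1536-well plates, 5 μl of leukemia cells were seeded per well: 500 cells/well for NOMO1 or SEM and 1000 cells/well for P12-Ichikawa. Each line had first been adapted for at least four passages in each medium. Library compounds in DMSO were pin-dosed at 11 threefold concentrations between 47 μM and 0.79 nM, and CellTiter-Glo One luminescence was read after 48 h at 37°C. Viability is a per-plate percentage relative to DMSO wells, with cell-free wells as background.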

[1] = HPLM + 10% dialyzed FBS, 0.000781 µM
[2] = HPLM + 10% dialyzed FBS, 0.00234 µM
[3] = HPLM + 10% dialyzed FBS, 0.00702 µM
[4] = HPLM + 10% dialyzed FBS, 0.0211 µM
[5] = HPLM + 10% dialyzed FBS, 0.0632 µM
[6] = HPLM + 10% dialyzed FBS, 0.19 µM
[7] = HPLM + 10% dialyzed FBS, 0.569 µM
[8] = HPLM + 10% dialyzed FBS, 1.71 µM
[9] = HPLM + 10% dialyzed FBS, 5.12 µM
[10] = HPLM + 10% dialyzed FBS, 15.4 µM
[11] = HPLM + 10% dialyzed FBS, 46.1 µM
[12] = RPMI 5 mM glucose + 10% FBS, 0.000781 µM
[13] = RPMI 5 mM glucose + 10% FBS, 0.00234 µM
[14] = RPMI 5 mM glucose + 10% FBS, 0.00702 µM
[15] = RPMI 5 mM glucose + 10% FBS, 0.0211 µM
[16] = RPMI 5 mM glucose + 10% FBS, 0.0632 µM
[17] = RPMI 5 mM glucose + 10% FBS, 0.19 µM
[18] = RPMI 5 mM glucose + 10% FBS, 0.569 µM
[19] = RPMI 5 mM glucose + 10% FBS, 1.71 µM
[20] = RPMI 5 mM glucose + 10% FBS, 5.12 µM
[21] = RPMI 5 mM glucose + 10% FBS, 15.4 µM
[22] = RPMI 5 mM glucose + 10% FBS, 46.1 µM
[23] = RPMI 5 mM glucose + 10% dialyzed FBS, 0.000781 µM
[24] = RPMI 5 mM glucose + 10% dialyzed FBS, 0.00234 µM
[25] = RPMI 5 mM glucose + 10% dialyzed FBS, 0.00702 µM
[26] = RPMI 5 mM glucose + 10% dialyzed FBS, 0.0211 µM
[27] = RPMI 5 mM glucose + 10% dialyzed FBS, 0.0632 µM
[28] = RPMI 5 mM glucose + 10% dialyzed FBS, 0.19 µM
[29] = RPMI 5 mM glucose + 10% dialyzed FBS, 0.569 µM
[30] = RPMI 5 mM glucose + 10% dialyzed FBS, 1.71 µM
[31] = RPMI 5 mM glucose + 10% dialyzed FBS, 5.12 µM
[32] = RPMI 5 mM glucose + 10% dialyzed FBS, 15.4 µM
[33] = RPMI 5 mM glucose + 10% dialyzed FBS, 46.1 µM

| Compound | cell viability [1] [%] | cell viability [2] [%] | cell viability [3] [%] | cell viability [4] [%] | cell viability [5] [%] | cell viability [6] [%] | cell viability [7] [%] | cell viability [8] [%] | cell viability [9] [%] | cell viability [10] [%] | cell viability [11] [%] | cell viability [12] [%] | cell viability [13] [%] | cell viability [14] [%] | cell viability [15] [%] | cell viability [16] [%] | cell viability [17] [%] | cell viability [18] [%] | cell viability [19] [%] | cell viability [20] [%] | cell viability [21] [%] | cell viability [22] [%] | cell viability [23] [%] | cell viability [24] [%] | cell viability [25] [%] | cell viability [26] [%] | cell viability [27] [%] | cell viability [28] [%] | cell viability [29] [%] | cell viability [30] [%] | cell viability [31] [%] | cell viability [32] [%] | cell viability [33] [%] |
| --- | --- | --- | --- | --- | --- | --- | --- | --- | --- | --- | --- | --- | --- | --- | --- | --- | --- | --- | --- | --- | --- | --- | --- | --- | --- | --- | --- | --- | --- | --- | --- | --- | --- |
| Cc1ccc([S+](=O)([O-])OCC(=O)Nc2ccc(C(=O)O)c(O)c2)cc1 | 141 | 123 | 121 | 117 | 124 | 145 | 128 | 132 | 124 | 146 | 84.1 | 122 | 119 | 124 | 139 | 133 | 150 | 133 | 130 | 118 | 121 | 102 | 106 | 113 | 127 | 121 | 131 | 139 | 142 | 142 | 146 | 146 | 122 |
| CC(C)(O)CC(=O)NCCn1ccc2ncnc(Nc3ccc(Oc4cccc(C(F)(F)F)c4)c(Cl)c3)c21 | 96.8 | 109 | 107 | 120 | 89.5 | 98.9 | 107 | 85.5 | 80.5 | 54.7 | 33.9 | 95.1 | 109 | 103 | 105 | 101 | 97.9 | 111 | 95.3 | 96.8 | 79 | 53.6 | 106 | 100 | 95.3 | 108 | 99.8 | 109 | 107 | 97.1 | 81.9 | 67.8 | 44.1 |
| NC(=O)c1ccc(N(C(N)=O)c2c(F)cccc2F)nc1-c1ccc(F)cc1F | 90 | 103 | 113 | 104 | 115 | 115 | 95.3 | 114 | 99.6 | 94.8 | 111 | 80.4 | 86.9 | 95.4 | 100 | 94.3 | 93.8 | 95.2 | 105 | 101 | 84.9 | 88 | 78.2 | 92.4 | 91.1 | 99.1 | 85.4 | 91.6 | 95 | 87.4 | 93.6 | 80.4 | 94.3 |
| O=C(O)c1cccnc1Nc1cccc(C(F)(F)F)c1 | 112 | 124 | 129 | 104 | 122 | 131 | 150 | 142 | 132 | 129 | 135 | 105 | 116 | 108 | 116 | 110 | 128 | 124 | 122 | 125 | 132 | 120 | 97.1 | 101 | 101 | 114 | 114 | 117 | 120 | 111 | 115 | 120 | 106 |
| C[C@@H]1CCO[C@H]2CN\3/C=C(/C(=O)NCC4=C(F)C=C(F)C=C4)C(=O)\C(=C3C(=O)N12)O | 107 | 103 | 117 | 116 | 109 | 109 | 101 | 90.6 | 105 | 102 | 108 | 87.6 | 91.1 | 110 | 88.7 | 92.6 | 88.5 | 84.5 | 102 | 86.3 | 95.4 | 93.9 | 90.3 | 82 | 106 | 96.9 | 99.6 | 85.8 | 103 | 98.4 | 95.5 | 87.1 | 96.2 |
| COc1cc2c(cc1OC)CN(CCc1ccc(NC(=O)c3cc(OC)c(OC)cc3NC(=O)c3cnc4ccccc4c3)cc1)CC2 | 118 | 121 | 123 | 122 | 128 | 122 | 109 | 119 | 114 | 95.3 | 94.1 | 107 | 106 | 123 | 118 | 123 | 118 | 127 | 106 | 107 | 107 | 96.5 | 118 | 122 | 113 | 126 | 115 | 126 | 116 | 124 | 120 | 102 | 91.5 |
| CC[C@@H]([C@H](C)O)n1ncn(-c2ccc(N3CCN(c4ccc(OCC5CO[C@@](Cn6cncn6)(c6ccc(F)cc6F)C5)cc4)CC3)cc2)c1=O (some centres not stated) | 109 | 106 | 91.5 | 112 | 106 | 98.2 | 109 | 107 | 82.4 | 94.8 | 84.9 | 101 | 97.3 | 93.3 | 97 | 83.5 | 91.4 | 87.3 | 87 | 87.5 | 82.3 | 78.1 | 95.1 | 90.3 | 92.6 | 81.3 | 93.6 | 83.4 | 92.1 | 90.1 | 90.4 | 87.1 | 78.2 |
| Cc1ccnc2c1NC(=O)c1cccnc1N2C1CC1 | 102 | 104 | 98.7 | 121 | 112 | 112 | 113 | 89.7 | 55.3 | 61.4 | 35.8 | 85.2 | 107 | 93.1 | 100 | 103 | 118 | 93.3 | 84.1 | 59.3 | 68.1 | 59.1 | 94.8 | 102 | 110 | 98.6 | 113 | 97.1 | 110 | 97.4 | 52.7 | 79.4 | 79.4 |
| CCc1ccc(/C=C2/SC(=S)NC2=O)cc1 | 70.3 | 79.1 | 88 | 86 | 74.5 | 74.2 | 79.2 | 79.7 | 94.3 | 51.3 | 92.2 | 75.7 | 83.5 | 81.8 | 81.9 | 87.2 | 83.8 | 88.1 | 76.3 | 93.4 | 59.9 | 75 | 78.2 | 71.1 | 83.2 | 81.4 | 87.5 | 73.4 | 84.3 | 82.1 | 85.3 | 48.6 | 86.3 |
| O=C(O)C(=O)c1cn(Cc2ccccc2)c2ccc(-c3ccc(OC(F)(F)F)cc3)cc12 | 101 | 102 | 105 | 107 | 108 | 108 | 110 | 81.4 | 91.3 | 90.6 | 88.5 | 93.5 | 94.8 | 90.3 | 109 | 96 | 100 | 104 | 89.6 | 97.8 | 96.1 | 89.5 | 106 | 96.8 | 104 | 119 | 97.8 | 95.3 | 100 | 85.2 | 93 | 98.4 | 80.8 |
| OCC(O)C(O)C(O)CO (configuration not stated) | 98.8 | 88.8 | 87.7 | 104 | 81.7 | 92.4 | 99 | 86.3 | 96.7 | 70.2 | 80 | 84 | 99.3 | 92.6 | 84.4 | 89.9 | 87.7 | 84.9 | 85.8 | 82 | 82.1 | 80 | 77.9 | 86.8 | 112 | 96.2 | 106 | 106 | 103 | 84.9 | 89 | 72.5 | 94.6 |
| Cc1coc2c1C(=O)C(=O)c1c-2ccc2c1CCCC2(C)C | 111 | 98.8 | 126 | 118 | 107 | 105 | 92.9 | 95.5 | 82 | 105 | 96.8 | 89.8 | 98.7 | 96.8 | 104 | 116 | 103 | 99.9 | 83.5 | 83.5 | 95.1 | 90.8 | 97.4 | 104 | 95.7 | 98.9 | 103 | 88.8 | 88.4 | 87.5 | 88.4 | 92.5 | 93.1 |
| COc1c(C)c2c(c(O)c1C/C=C(\C)CCC(=O)O)C(=O)OC2 | 116 | 109 | 106 | 107 | 116 | 95.4 | 115 | 100 | 86.7 | 45.2 | 32.6 | 101 | 107 | 102 | 94.4 | 109 | 94.9 | 102 | 109 | 84.6 | 47.5 | 22.3 | 98.4 | 96.7 | 105 | 97.3 | 100 | 108 | 84.7 | 89.5 | 90.4 | 58 | 38.3 |
| COc1ccc2c(c1)[C@]13CCCCC1C(C2)N(C)CC3 (some centres not stated) | – | – | – | – | – | – | – | – | – | – | – | 104 | 117 | 107 | 121 | 118 | 108 | 109 | 111 | 121 | 90.3 | 101 | 111 | 114 | 116 | 119 | 135 | 130 | 114 | 132 | 115 | 118 | 84.2 |
| O=C(O)c1cc(/N=N/c2ccc([S+](=O)([O-])Nc3ccccn3)cc2)ccc1O | 102 | 113 | 108 | 104 | 121 | 109 | 104 | 115 | 111 | 105 | 91 | 101 | 107 | 115 | 96.8 | 99.2 | 102 | 102 | 98.2 | 114 | 98.7 | 97.6 | 95.1 | 96.9 | 109 | 94.3 | 106 | 97 | 115 | 111 | 91.2 | 98.9 | 102 |
| CC(N[C@H]1CCCC[C@@H]1NC(=O)c1ccc(Cl)cc1)c1cccc2ccccc12 (some centres not stated) | 117 | 131 | 112 | 127 | 113 | 110 | 139 | 86.3 | 83 | 28 | 29.5 | 100 | 107 | 120 | 114 | 110 | 113 | 114 | 102 | 105 | 19.9 | 18.2 | 102 | 108 | 113 | 112 | 111 | 117 | 103 | 103 | 107 | 25.4 | 24.2 |
